In patent US8742106B2 (Novartis AG, priority 2009, dated 2014):
pKd, pKi: −log10 of the molar value.

Assays:
[1] = target: T1, human orexin 1 receptors (Homo sapiens (Human), UniProt O43613); assay: Radioligand Binding Assay I ([125I]orexin A competition, cell membranes); settings: read-out: binding I hOx1R Kd
Procedure: (§1) Radioligand Binding Assay I
(§2) For crude cell membrane preparations, cells (CHO, Chinese hamster ovary or HEK, human embryonic kidney) expressing human orexin 1 or human orexin 2 receptors, were washed with HEPES (10 mM, pH 7.5), scraped off the culture plates with the same buffer, and centrifuged at 4° C. for 5 min at 2500×g. The cell pellet was either stored at −80° C. or used directly. Before the experiments, cell membranes were re-suspended in binding assay buffer (10 mM HEPES, 0.5% (w/v) bovine serum albumin, pH 7.5) by homogenisation with a Polytron homogeniser at 50 Hz for 20 s. Cell membranes were also used as made available by commercial providers.
(§3) In initial saturation experiments (to calculate Bmax), cell homogenates (150 μl) were incubated with 25-300 pM of the radioligand ([^125I]orexin A, 50 μl), 8 concentrations in triplicates in the presence or absence Orexin A (1 μM, 50 μl) to define non specific binding. Bound radioactivity was measured, and data were analysed with the program XLFIT or Graphpad Prism. Protein concentration was determined according to the Bradford/BioRad Protein Assay Kit.
(§4) In competition experiments, cell homogenates (150 μl) were incubated in assay buffer (10 mM HEPES, pH 7.5, 0.5% (w/v) bovine serum albumin, 5 mM MgCl2, 1 mM CaCl2, and tween 0.05%) for 1 h at room temperature with about 100 pM of the radioligand ([^125I]orexin A, 2100 Ci/mmole, 50 μl), and with various concentrations of compounds of the invention (50 μl) in triplicates; non-specific binding was determined in the presence of Orexin A (1 μM). Reactions were terminated by vacuum filtration, 3 washes of ice cold wash buffer (Tris-HCl pH 7.4/10 mM, with NaCl 154 mM).

[2] = target: T2, human orexin 2 receptors (Homo sapiens (Human), UniProt O43614); assay: as above; settings: read-out: binding I hOx2R Kd
T2 sequence (O43614 whole entry): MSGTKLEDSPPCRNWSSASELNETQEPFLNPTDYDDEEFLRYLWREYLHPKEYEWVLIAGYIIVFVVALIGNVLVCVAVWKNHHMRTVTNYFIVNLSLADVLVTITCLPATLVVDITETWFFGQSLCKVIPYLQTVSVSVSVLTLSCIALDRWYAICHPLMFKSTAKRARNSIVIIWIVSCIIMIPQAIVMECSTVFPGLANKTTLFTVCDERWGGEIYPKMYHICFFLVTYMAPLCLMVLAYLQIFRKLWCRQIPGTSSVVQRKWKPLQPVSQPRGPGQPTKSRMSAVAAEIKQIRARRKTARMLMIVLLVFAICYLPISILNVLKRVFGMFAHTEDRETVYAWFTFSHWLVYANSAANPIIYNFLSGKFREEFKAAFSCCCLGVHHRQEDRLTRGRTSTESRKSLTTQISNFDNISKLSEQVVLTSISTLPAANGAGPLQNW
Procedure: as §1, §2, §3, §4

[3] = target: T1, human orexin 1 receptors; assay: Calcium Accumulation in Cells (FLIPR), antagonism of orexin A; type: cell-based; settings: antagonism of orexin A, Cheng-Prusoff corrected; read-out: FLIPR hOx1R Ki
[4] = target: T2, human orexin 2 receptors; assay: as above; type: cell-based; settings: antagonism of orexin A, Cheng-Prusoff corrected; read-out: FLIPR hOx2R Ki
Procedure, shortened: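 Antagonism was measured as block of orexin A-evoked Ca²⁺ fluorescence (FLIPR), with orexin A added one hour after test compound (usually 10^−9–10^−5 M), which was first read alone for agonist activity. Human orexin 2 receptor cells were dye-loaded with 2 μM Fluo4-AM and 0.1 mM probenecid for 1 h.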

[5] = target: T1, human orexin 1 receptors; assay: Radioligand Binding Assay II ([3H]-SB649868 competition, cell membranes); settings: read-out: binding II hOx1R Kd
Procedure, shortened: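 Membranes from CHO or HEK cells expressing human orexin 1 or orexin 2 receptors incubated 1 h at room temperature with about 1 nM [3H]-SB649868 and compound (triplicates) in HEPES pH 7.5 buffer with BSA, MgCl2, CaCl2, tween. Nonspecific binding defined with 10 μM almorexant; filtration read-out, Kd reported.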

[6] = target: T2, human orexin 2 receptors; assay: as above; settings: read-out: binding II hOx2R Kd
Procedure, shortened: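 Competition binding used membranes from CHO or HEK cells expressing human orexin 2 receptor, incubated 1 h at room temperature with ~1 nM [3H]-SB649868 in 10 mM HEPES pH 7.5, 0.5% BSA, 5 mM MgCl2, 1 mM CaCl2, 0.05% tween. Nonspecific binding was defined with 10 μM almorexant, and bound activity was measured after filtration.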

T1 sequence (O43613 whole entry): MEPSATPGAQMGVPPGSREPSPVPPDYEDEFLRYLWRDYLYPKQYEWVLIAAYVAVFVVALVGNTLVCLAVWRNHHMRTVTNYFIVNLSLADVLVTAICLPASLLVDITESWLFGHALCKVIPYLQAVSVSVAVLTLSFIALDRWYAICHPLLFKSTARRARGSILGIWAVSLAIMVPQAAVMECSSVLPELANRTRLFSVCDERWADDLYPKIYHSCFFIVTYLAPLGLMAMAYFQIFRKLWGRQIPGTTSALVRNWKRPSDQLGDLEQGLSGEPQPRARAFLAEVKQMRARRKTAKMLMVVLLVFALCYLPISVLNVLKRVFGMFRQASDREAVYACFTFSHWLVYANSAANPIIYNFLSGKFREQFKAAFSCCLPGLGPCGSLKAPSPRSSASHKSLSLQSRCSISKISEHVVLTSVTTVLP

SMILES | pKd [1] | pKd [2] | pKi [3] | pKi [4] | pKd [5] | pKd [6]
CC(Oc1cc(C(F)(F)F)c2c(-c3ccccc3)nn(C)c2n1)C(=O)N[C@@H](C)c1ccccc1 (single isomer, unassigned) [Example 1.73] | 6.65 | 6.79 | 6.65 | 7.04 |  | 
C[C@H](NC(=O)COc1cc(C(F)(F)F)c2c(-c3ccccc3F)nn(C)c2n1)c1ccccc1 [Example 1.1, (S)-2-(3-(2-fluorophenyl)-1-methyl-4-(trifluoromethyl)-1H-pyrazolo[3,4-b]pyridin-6-yloxy)-N-(1-phenylethyl)acetamide] | 6.73 | 7.10 | 6.81 | 7.52 |  | 
Cc1cc(OCC(=O)N[C@@H](C)c2ccccc2)nc2c1c(-c1ccccc1)nn2C [Example 1.13, (S)-2-(1,4-dimethyl-3-phenyl-1H-pyrazolo[3,4-b]pyridin-6-yloxy)-N-(1-phenylethyl)acetamide] | 7.35 | 6.84 | 6.74 | 6.63 |  | 
Cc1cc(OCC(=O)NC(C)CCc2ccccc2)nc2c1c(-c1ccccc1)nn2C (stereo not drawn) [Example 1.16, 2-(1,4-dimethyl-3-phenyl-1H-pyrazolo[3,4-b]pyridin 6-yloxy)-N-(4-phenylbutan-2-yl)acetamide] | 6.94 | 7.55 | 6.34 | 7.31 |  | 
C[C@H](NC(=O)COc1cc(C(F)(F)F)c2c(-c3ccccc3)nn(C)c2n1)c1ccccc1 [Example 1.17, (S)-2-(1-methyl-3-phenyl-4-(trifluoromethyl)-1H-pyrazolo[3,4-b]pyridin-6-yloxy)-N-(1-phenylethyl)acetamide] | 7.19 | 6.92 | 6.76 | 6.97 |  | 
CC(NC(=O)COc1cc(C(F)(F)F)c2c(-c3ccccc3)nn(C)c2n1)c1ccccc1 (stereo not drawn) [Example 1.18, 2-(1-methyl-3-phenyl-4-(trifluoromethyl)-1H-pyrazolo[3,4-b]pyridin-6-yloxy)-N-(1-phenylethyl)acetamide] | 7.44 | 7.20 | 7.32 | 7.59 |  | 
COc1cccc(-c2nn(C)c3nc(OCC(=O)N[C@@H](C)c4ccccc4)cc(C(F)(F)F)c23)c1 [Example 1.19, (S)-2-(3-(3-methoxyphenyl)-1-methyl-4-(trifluoromethyl)-1H-pyrazolo[3,4-b]pyridin-6-yloxy)-N-(1-phenylethyl)acetamide] | 7.00 | 6.07 | 6.97 | 6.73 |  | 
COc1ccc(-c2nn(C)c3nc(OCC(=O)N[C@@H](C)c4ccccc4)cc(C(F)(F)F)c23)cc1 [Example 1.20] | 6.52 | 6.73 | 6.42 | 7.12 |  | 
C[C@H](NC(=O)COc1cc(C(F)(F)F)c2c(-c3cccc(F)c3)nn(C)c2n1)c1ccccc1 [Example 1.22, (S)-2-(3-(3-fluorophenyl)-1-methyl-4-(trifluoromethyl)-1H-pyrazolo[3,4-b]pyridin-6-yloxy)-N-(1-phenylethyl)acetamide] | 7.06 | 7.03 | 6.97 | 7.30 |  | 
C[C@H](NC(=O)COc1cc(C(F)(F)F)c2c(-c3ccc(F)cc3)nn(C)c2n1)c1ccccc1 [Example 1.23, (S)-2-(3-(4-fluorophenyl)-1-methyl-4-(trifluoromethyl)-1H-pyrazolo[3,4-b]pyridin-6-yloxy)-N-(1-phenylethyl)acetamide] | 6.88 | 6.56 | 6.89 | 6.87 |  | 
Cc1cccc(-c2nn(C)c3nc(OCC(=O)N[C@@H](C)c4ccccc4)cc(C(F)(F)F)c23)c1 [Example 1.24, (S)-2-(1-methyl-3-m-tolyl-4-(trifluoromethyl)-1H-pyrazolo[3,4-b]pyridin-6-yloxy)-N-(1-phenylethyl)acetamide] | 7.32 | 6.82 | 7.27 | 7.06 |  | 
Cc1ccc(CNC(=O)COc2cc(C(F)(F)F)c3c(-c4ccccc4)nn(C)c3n2)cc1 [Example 1.32, 2-(1-methyl-3-phenyl-4-(trifluoromethyl)-1H-pyrazolo[3,4-b]pyridin-6-yloxy)-N-(4-methylbenzyl)acetamide] | 5.58 | 5.86 | 6.07 | 6.94 |  | 
CCn1nccc1C(C)NC(=O)COc1cc(C(F)(F)F)c2c(-c3ccccc3)nn(C)c2n1 (stereo not drawn) [Example 1.39, N-(1-(1-ethyl-1H-pyrazol-5-yl)ethyl)-2-(1-methyl-3-phenyl-4-(trifluoromethyl)-1H-pyrazolo[3,4-b]pyridin-6-yloxy)acetamide] | 6.48 | 5.95 | 6.65 | 6.45 |  | 
COc1ccc(CNC(=O)COc2cc(C(F)(F)F)c3c(-c4ccccc4)nn(C)c3n2)cc1 [Example 1.41, N-(4-methoxybenzyl)-2-(1-methyl-3-phenyl-4-(trifluoromethyl)-1H-pyrazolo[3,4-b]pyridin-6-yloxy)acetamide] | 5.91 | 6.39 | 6.10 | 7.08 |  | 
COc1ccc(C(C)NC(=O)COc2cc(C(F)(F)F)c3c(-c4ccccc4)nn(C)c3n2)cc1 (stereo not drawn) [Example 1.45, N-(1-(4-methoxyphenyl)ethyl)-2-(1-methyl-3-phenyl-4-(trifluoromethyl)-1H-pyrazolo[3,4-b]pyridin-6-yloxy)acetamide] | 7.49 | 8.15 | 7.54 | 8.70 |  | 
COc1cccc(C(C)NC(=O)COc2cc(C(F)(F)F)c3c(-c4ccccc4)nn(C)c3n2)c1 (stereo not drawn) [Example 1.46, N-(1-(3-methoxyphenyl)ethyl)-2-(1-methyl-3-phenyl-4-(trifluoromethyl)-1H-pyrazolo[3,4-b]pyridin-6-yloxy)acetamide] | 7.38 | 7.00 | 7.70 | 7.59 |  | 
CCOc1ccc2c(c1)CC[C@@H]2NC(=O)COc1cc(C)c2c(C3CC3)nn(C)c2n1 [Example 6.68, (S)-2-(3-cyclopropyl-1,4-dimethyl-1H-pyrazolo[3,4-b]pyridin-6-yloxy)-N-(5-ethoxy-2,3-dihydro-1H-inden-1-yl)acetamide] |  |  | 7.15 | 6.82 | 7.28 | 6.50
Cc1ccc2c(n1)CC[C@@H]2NC(=O)COc1cc(C(F)(F)F)c2c(-c3cc(C)oc3C)nn(C)c2n1 [Example 6.79, (S)-2-(3-(2,5-dimethylfuran-3-yl)-1-methyl-4-(trifluoromethyl)-1H-pyrazolo[3,4-b]pyridin-6-yloxy)-N-(2-methyl-6,7-dihydro-5H-cyclopenta[b]pyridin-5-yl)acetamide] |  |  | 7.64 | 8.15 | 7.47 | 7.05
COc1ccc([C@H](C)NC(=O)COc2cc(C(F)(F)F)c3c(-c4cc(C)oc4C)nn(C)c3n2)cc1 [Example 6.80, (S)-2-(3-(2,5-dimethylfuran-3-yl)-1-methyl-4-(trifluoromethyl)-1H-pyrazolo[3,4-b]pyridin-6-yloxy)-N-(1-(4-methoxyphenyl)ethyl)acetamide] |  |  | 8.22 | 8.15 | 7.92 | 7.49
COc1cc2c(cc1OC)C(NC(=O)COc1cc(C)c3c(C4CC4)nn(C)c3n1)CC2 (stereo not drawn) [Example 7.1, 2-(3-cyclopropyl-1,4-dimethyl-1H-pyrazolo[3,4-b]pyridin-6-yloxy)-N-(5,6-dimethoxy-2,3-dihydro-1H-inden-1-yl)acetamide] |  |  | 6.85 | 7.28 | 7.26 | 7.19
Cc1ccc([C@H](C)NC(=O)COc2cc(C)c3c(C4CC4)nn(C)c3n2)cc1 [Example 7.11, (S)-2-(3-cyclopropyl-1,4-dimethyl-1H-pyrazolo[3,4-b]pyridin-6-yloxy)-N-(1-p-tolylethyl)acetamide] |  |  | 7.30 | 7.62 | 7.74 | 7.77
